# Measurements as given in PMC4979471 (Cell Death Discovery, 2015).
# Where two headings read alike, the source gives them in different places.
# Columns and labels:
# Assay in all cases: Kinase selectivity, P33-radiolabeled assay
# Type in all cases: biochemical
# Settings in all cases: 10 μM ATP
# MRCKb/CDC42BPB = target: T1, MRCKb/CDC42BPB (Homo sapiens, UniProt Q9Y5S2)
# T1 construct: purchased Reaction Biology Corp
# Outline: (§1)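 ATP at 10 μM; test article at 10 μM, single point, two replicates. Output is activity as % of DMSO.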
# TYK2 = target: T2, TYK2 (Homo sapiens, UniProt P29597)
# T2 construct: purchased Reaction Biology Corp
# Outline: as §1
# ERBB4/HER4 = target: T3, ERBB4/HER4 (Homo sapiens, UniProt Q15303)
# T3 construct: purchased Reaction Biology Corp
# Outline: as §1
# MSK1/RPS6KA5 = target: T4, MSK1/RPS6KA5 (Homo sapiens, UniProt O75582)
# T4 construct: purchased Reaction Biology Corp
# Outline: as §1
# VRK1 = target: T5, VRK1 (Homo sapiens, UniProt Q99986)
# T5 construct: purchased Reaction Biology Corp
# T5 sequence (Q99986 1-396): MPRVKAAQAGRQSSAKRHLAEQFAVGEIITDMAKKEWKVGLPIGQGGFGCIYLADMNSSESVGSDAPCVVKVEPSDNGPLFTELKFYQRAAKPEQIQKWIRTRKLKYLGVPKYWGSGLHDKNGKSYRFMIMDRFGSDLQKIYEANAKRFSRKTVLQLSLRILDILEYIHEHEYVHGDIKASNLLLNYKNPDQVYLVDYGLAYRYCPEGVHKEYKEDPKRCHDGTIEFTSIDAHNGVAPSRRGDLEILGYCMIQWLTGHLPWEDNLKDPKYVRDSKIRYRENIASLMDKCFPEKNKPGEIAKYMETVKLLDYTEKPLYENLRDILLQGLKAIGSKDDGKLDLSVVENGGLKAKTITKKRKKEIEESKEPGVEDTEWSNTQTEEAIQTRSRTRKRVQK
# Outline: as §1
# NEK6 = target: T6, NEK6 (Homo sapiens, UniProt Q9HC98)
# T6 construct: purchased Reaction Biology Corp
# Outline: as §1
# AXL = target: T7, AXL (Homo sapiens, UniProt P30530)
# T7 construct: purchased Reaction Biology Corp
# T7 sequence (P30530 26-894): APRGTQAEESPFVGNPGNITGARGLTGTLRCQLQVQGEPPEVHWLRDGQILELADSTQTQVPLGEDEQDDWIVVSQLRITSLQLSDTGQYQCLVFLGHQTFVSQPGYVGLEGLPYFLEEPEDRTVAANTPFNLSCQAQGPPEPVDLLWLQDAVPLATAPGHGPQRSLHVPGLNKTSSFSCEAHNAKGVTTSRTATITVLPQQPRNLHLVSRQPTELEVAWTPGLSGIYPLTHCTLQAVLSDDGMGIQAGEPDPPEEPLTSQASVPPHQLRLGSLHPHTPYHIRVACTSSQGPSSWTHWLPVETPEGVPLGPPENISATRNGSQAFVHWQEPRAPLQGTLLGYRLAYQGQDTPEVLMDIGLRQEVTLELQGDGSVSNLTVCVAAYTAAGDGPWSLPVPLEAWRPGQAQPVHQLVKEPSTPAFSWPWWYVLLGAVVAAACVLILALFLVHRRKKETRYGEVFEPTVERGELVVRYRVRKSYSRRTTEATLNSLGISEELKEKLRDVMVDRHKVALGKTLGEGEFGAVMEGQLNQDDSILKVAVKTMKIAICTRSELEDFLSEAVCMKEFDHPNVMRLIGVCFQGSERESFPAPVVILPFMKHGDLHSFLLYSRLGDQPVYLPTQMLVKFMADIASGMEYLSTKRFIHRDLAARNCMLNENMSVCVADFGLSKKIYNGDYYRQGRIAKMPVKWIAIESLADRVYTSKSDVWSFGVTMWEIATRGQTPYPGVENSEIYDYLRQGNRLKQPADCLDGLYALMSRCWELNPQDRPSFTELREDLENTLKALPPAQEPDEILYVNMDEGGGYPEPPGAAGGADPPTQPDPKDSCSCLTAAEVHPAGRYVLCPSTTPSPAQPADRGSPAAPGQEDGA
# Outline: as §1
# CK2a = target: T8, CK2a (Homo sapiens, UniProt P68400)
# T8 construct: purchased Reaction Biology Corp
# Outline: as §1
# ROCK2 = target: T9, ROCK2 (Homo sapiens, UniProt O75116)
# T9 construct: purchased Reaction Biology Corp
# Outline: as §1
# JNK2 = target: T10, JNK2 (Homo sapiens, UniProt P45984)
# T10 construct: purchased Reaction Biology Corp
# Outline: as §1
# MAPKAPK2 = target: T11, MAPKAPK2 (Homo sapiens, UniProt P49137)
# T11 construct: purchased Reaction Biology Corp
# Outline: as §1
# ABL1 = target: T12, ABL1 (Homo sapiens, UniProt P00519)
# T12 construct: purchased Reaction Biology Corp
# Outline: as §1
# EPHA2 = target: T13, EPHA2 (Homo sapiens, UniProt P29317)
# T13 construct: purchased Reaction Biology Corp
# Outline: as §1
# IRR/INSRR = target: T14, IRR/INSRR (Homo sapiens, UniProt P14616)
# T14 construct: purchased Reaction Biology Corp
# Outline: as §1
# WEE1 = target: T15, WEE1 (Homo sapiens, UniProt P30291)
# T15 construct: purchased Reaction Biology Corp
# Outline: as §1
# PAK5 = target: T16, PAK5 (Homo sapiens, UniProt Q9P286)
# T16 construct: purchased Reaction Biology Corp
# Outline: as §1
# HIPK3 = target: T17, HIPK3 (Homo sapiens, UniProt Q9H422)
# T17 construct: purchased Reaction Biology Corp
# Outline: as §1
# [1] = read-out: % Enzyme Activity (relative to DMSO controls) AVG
# [2] = read-out: % Enzyme Activity (relative to DMSO controls) Data 1
# [3] = read-out: % Enzyme Activity (relative to DMSO controls) Data 2
# T1 sequence (Q9Y5S2 whole entry): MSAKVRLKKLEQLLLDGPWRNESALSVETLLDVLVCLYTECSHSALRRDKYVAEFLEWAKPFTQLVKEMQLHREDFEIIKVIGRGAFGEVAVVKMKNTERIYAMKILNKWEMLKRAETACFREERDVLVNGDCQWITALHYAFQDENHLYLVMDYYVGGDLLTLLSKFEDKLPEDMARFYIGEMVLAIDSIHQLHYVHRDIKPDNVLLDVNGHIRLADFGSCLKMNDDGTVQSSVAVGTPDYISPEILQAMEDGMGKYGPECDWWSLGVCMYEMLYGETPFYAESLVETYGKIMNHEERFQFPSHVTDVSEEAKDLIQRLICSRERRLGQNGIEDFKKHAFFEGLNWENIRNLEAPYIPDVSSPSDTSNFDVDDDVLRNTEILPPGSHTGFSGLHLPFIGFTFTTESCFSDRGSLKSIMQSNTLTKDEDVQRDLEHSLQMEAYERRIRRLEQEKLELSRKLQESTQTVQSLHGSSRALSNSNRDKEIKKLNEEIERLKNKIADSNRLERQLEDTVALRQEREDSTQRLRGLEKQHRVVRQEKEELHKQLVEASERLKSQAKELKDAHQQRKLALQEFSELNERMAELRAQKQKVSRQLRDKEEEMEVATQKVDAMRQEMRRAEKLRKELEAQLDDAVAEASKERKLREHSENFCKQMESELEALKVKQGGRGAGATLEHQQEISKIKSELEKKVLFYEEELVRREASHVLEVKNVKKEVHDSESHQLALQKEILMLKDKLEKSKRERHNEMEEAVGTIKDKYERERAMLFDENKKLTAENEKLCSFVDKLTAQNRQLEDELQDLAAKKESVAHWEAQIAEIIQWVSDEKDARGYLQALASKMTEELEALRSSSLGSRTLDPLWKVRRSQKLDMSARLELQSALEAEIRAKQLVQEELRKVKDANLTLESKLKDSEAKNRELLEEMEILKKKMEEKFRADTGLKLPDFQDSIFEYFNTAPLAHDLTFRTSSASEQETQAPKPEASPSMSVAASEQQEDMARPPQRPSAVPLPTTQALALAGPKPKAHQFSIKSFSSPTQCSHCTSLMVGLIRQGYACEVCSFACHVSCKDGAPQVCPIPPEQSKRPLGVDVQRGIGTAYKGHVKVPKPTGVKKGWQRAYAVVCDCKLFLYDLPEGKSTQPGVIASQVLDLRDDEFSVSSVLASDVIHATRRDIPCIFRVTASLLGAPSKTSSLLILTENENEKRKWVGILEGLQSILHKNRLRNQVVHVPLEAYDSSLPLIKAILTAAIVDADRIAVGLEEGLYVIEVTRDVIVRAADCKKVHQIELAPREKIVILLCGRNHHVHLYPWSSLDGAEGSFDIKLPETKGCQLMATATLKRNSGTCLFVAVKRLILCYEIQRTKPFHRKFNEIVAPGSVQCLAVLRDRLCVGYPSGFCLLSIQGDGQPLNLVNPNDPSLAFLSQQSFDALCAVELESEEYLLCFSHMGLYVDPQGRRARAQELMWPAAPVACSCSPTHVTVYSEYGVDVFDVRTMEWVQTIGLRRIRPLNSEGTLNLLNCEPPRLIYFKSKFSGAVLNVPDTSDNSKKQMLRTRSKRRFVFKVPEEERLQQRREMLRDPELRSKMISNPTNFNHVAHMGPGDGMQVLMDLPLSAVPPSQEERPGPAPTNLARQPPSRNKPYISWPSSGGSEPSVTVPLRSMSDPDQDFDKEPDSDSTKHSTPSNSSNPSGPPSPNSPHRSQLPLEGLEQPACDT
# T17 sequence (Q9H422 whole entry): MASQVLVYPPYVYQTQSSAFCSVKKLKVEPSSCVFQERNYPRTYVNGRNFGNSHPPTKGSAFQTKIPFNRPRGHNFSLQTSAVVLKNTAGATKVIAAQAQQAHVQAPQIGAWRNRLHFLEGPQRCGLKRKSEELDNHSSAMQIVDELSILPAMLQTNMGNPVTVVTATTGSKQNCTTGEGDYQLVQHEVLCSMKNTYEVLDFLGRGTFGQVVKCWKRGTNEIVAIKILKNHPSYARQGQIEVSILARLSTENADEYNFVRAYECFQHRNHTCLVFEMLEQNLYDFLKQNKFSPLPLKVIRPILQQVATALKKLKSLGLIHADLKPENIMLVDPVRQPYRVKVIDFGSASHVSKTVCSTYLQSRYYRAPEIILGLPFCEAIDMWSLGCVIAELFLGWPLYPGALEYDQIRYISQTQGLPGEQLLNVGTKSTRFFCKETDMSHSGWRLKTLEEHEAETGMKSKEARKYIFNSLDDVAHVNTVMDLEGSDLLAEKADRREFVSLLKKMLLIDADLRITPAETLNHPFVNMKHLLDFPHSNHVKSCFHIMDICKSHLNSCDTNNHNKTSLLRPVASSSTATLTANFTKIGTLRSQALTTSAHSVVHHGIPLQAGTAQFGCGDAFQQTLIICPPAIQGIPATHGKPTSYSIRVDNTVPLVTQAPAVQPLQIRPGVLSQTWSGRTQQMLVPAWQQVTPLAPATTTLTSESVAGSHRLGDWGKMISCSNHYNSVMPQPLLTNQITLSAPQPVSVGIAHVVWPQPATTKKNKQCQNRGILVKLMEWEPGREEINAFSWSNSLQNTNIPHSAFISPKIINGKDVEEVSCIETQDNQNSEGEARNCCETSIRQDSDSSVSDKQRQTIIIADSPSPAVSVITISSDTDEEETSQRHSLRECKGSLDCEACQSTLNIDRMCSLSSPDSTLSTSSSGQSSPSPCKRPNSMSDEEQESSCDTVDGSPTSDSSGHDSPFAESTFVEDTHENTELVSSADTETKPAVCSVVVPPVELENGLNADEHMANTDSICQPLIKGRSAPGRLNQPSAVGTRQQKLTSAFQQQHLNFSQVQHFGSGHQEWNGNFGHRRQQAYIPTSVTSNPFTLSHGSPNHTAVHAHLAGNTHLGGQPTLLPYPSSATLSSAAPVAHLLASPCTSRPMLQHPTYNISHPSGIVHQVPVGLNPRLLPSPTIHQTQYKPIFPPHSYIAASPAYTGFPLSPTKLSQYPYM
# T10 sequence (P45984 whole entry): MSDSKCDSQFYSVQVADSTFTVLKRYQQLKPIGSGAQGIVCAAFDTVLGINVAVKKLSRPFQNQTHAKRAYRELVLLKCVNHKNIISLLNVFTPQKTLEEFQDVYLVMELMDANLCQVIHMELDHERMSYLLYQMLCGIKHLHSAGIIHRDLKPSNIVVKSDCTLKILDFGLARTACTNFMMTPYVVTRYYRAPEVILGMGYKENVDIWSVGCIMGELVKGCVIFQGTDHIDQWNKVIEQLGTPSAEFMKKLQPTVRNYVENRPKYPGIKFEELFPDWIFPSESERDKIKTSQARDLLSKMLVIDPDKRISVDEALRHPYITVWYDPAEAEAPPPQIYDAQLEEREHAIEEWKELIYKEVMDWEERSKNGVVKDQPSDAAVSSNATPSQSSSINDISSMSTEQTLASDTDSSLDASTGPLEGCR
# T12 sequence (P00519 whole entry): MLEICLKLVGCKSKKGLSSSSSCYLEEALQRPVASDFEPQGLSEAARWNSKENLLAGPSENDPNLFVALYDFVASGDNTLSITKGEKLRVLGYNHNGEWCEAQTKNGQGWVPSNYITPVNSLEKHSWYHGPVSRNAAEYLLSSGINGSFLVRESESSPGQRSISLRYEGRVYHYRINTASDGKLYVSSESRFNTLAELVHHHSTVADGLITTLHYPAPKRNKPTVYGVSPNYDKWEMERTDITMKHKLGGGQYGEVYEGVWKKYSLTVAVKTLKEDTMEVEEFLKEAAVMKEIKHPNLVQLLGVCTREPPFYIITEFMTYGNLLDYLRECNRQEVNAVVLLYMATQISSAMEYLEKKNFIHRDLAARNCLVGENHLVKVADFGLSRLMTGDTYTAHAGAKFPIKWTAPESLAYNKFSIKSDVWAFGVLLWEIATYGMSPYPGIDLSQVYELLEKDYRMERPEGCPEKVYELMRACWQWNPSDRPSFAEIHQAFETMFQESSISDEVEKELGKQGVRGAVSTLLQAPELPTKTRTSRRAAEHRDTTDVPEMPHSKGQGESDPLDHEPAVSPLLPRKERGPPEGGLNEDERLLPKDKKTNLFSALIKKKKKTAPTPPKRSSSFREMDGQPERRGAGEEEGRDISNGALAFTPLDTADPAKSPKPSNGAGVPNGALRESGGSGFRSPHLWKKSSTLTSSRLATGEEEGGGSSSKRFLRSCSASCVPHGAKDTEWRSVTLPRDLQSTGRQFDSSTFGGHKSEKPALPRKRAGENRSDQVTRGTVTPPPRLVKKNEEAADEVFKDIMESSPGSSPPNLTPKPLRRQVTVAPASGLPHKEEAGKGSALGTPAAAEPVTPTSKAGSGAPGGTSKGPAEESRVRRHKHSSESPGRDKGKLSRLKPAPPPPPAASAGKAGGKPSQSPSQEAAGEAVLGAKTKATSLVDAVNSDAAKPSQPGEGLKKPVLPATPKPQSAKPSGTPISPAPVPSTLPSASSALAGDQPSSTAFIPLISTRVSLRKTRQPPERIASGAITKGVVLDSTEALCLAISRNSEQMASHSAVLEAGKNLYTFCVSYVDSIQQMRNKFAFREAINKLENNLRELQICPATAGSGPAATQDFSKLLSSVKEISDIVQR
# T8 sequence (P68400 whole entry): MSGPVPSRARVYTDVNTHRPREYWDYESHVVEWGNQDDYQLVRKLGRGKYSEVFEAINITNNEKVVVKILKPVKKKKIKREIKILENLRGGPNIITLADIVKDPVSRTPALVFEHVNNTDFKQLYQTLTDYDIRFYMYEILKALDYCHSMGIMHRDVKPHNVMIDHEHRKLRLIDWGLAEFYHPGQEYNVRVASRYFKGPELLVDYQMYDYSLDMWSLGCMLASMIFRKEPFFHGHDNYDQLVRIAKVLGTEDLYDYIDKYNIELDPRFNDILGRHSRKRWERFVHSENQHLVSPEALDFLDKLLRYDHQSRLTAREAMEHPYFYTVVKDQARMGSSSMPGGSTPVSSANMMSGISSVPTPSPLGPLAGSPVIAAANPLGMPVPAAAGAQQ
smiles,measurement,setting,value
CC(C)(C)C(=O)N1N=CC[C@H]1c1ccccc1 [GSK′963],remaining activity at 10 µM,MRCKb/CDC42BPB; [1],106%
same,remaining activity at 10 µM,MRCKb/CDC42BPB; [2],109%
same,remaining activity at 10 µM,MRCKb/CDC42BPB; [3],102%
same,remaining activity at 10 µM,TYK2; [1],103%
same,remaining activity at 10 µM,TYK2; [2],104%
same,remaining activity at 10 µM,TYK2; [3],101%
same,remaining activity at 10 µM,ERBB4/HER4; [1],102%
same,remaining activity at 10 µM,ERBB4/HER4; [2],101%
same,remaining activity at 10 µM,ERBB4/HER4; [3],104%
same,remaining activity at 10 µM,MSK1/RPS6KA5; [1],108%
same,remaining activity at 10 µM,MSK1/RPS6KA5; [2],108%
same,remaining activity at 10 µM,MSK1/RPS6KA5; [3],108%
same,remaining activity at 10 µM,VRK1; [1],78.2%
same,remaining activity at 10 µM,VRK1; [2],80.9%
same,remaining activity at 10 µM,VRK1; [3],75.4%
same,remaining activity at 10 µM,NEK6; [1],97.9%
same,remaining activity at 10 µM,NEK6; [2],100%
same,remaining activity at 10 µM,NEK6; [3],95.5%
same,remaining activity at 10 µM,AXL; [1],92.9%
same,remaining activity at 10 µM,AXL; [2],91.2%
same,remaining activity at 10 µM,AXL; [3],94.6%
same,remaining activity at 10 µM,CK2a; [1],99.4%
same,remaining activity at 10 µM,CK2a; [2],105%
same,remaining activity at 10 µM,CK2a; [3],93.8%
same,remaining activity at 10 µM,ROCK2; [1],98%
same,remaining activity at 10 µM,ROCK2; [2],99%
same,remaining activity at 10 µM,ROCK2; [3],97.1%
same,remaining activity at 10 µM,JNK2; [1],100%
same,remaining activity at 10 µM,JNK2; [2],96.4%
same,remaining activity at 10 µM,JNK2; [3],104%
same,remaining activity at 10 µM,MAPKAPK2; [1],112%
same,remaining activity at 10 µM,MAPKAPK2; [2],115%
same,remaining activity at 10 µM,MAPKAPK2; [3],109%
same,remaining activity at 10 µM,ABL1; [1],99.3%
same,remaining activity at 10 µM,ABL1; [2],102%
same,remaining activity at 10 µM,ABL1; [3],96.9%
same,remaining activity at 10 µM,EPHA2; [1],96.3%
same,remaining activity at 10 µM,EPHA2; [2],95.6%
same,remaining activity at 10 µM,EPHA2; [3],97%
same,remaining activity at 10 µM,IRR/INSRR; [1],75.3%
same,remaining activity at 10 µM,IRR/INSRR; [2],72.8%
same,remaining activity at 10 µM,IRR/INSRR; [3],77.7%
same,remaining activity at 10 µM,WEE1; [1],85.6%
same,remaining activity at 10 µM,WEE1; [2],81.9%
same,remaining activity at 10 µM,WEE1; [3],89.2%
same,remaining activity at 10 µM,PAK5; [1],124%
same,remaining activity at 10 µM,PAK5; [2],119%
same,remaining activity at 10 µM,PAK5; [3],128%
same,remaining activity at 10 µM,HIPK3; [1],100%
same,remaining activity at 10 µM,HIPK3; [2],100%
same,remaining activity at 10 µM,HIPK3; [3],101%
